≈ marks a conversion by molar mass, not a printed value. Like-named read-outs stand apart in the source and are kept apart here.
Legend:
Toxicity (LD50) in mice = conditions: mouse, in vivo, ip; administered intraperitoneally to mice
S. marcescens 1324E = assay: Determination of Minimum Inhibitory Concentrations (MIC), agar dilution; type: cell-based; conditions: Serratia marcescens
Source text: (§1) Biological testing of a number of compounds of the invention has provided the results shown below;-the test compounds are identified by their Example Numbers: 1. Determination of Minimum Inhibitory Concentrations (MIC)
(§2) Serial two-fold dilutions of freshly prepared test solutions were made into Oxoid No. 1 Nutrient agar with or without added enrichment and poured into petri diches. Plates were inoculated with a multipoint inoculator with inoculum containing approximately 10^5 colony forming units of the organisms shown in the following Tables, all of which organisms are clinical isolates. The MIC, quoted in the Tables as µg/ml, was read after 18 hours incubation at 37°C as the lowest concentration which inhibited growth.. N.T. means not tested.

E. cloacae 1051E = assay: as above; type: cell-based; conditions: Enterobacter cloacae
Source text: as §1, §2

H. influenzae 1184E = assay: as above; type: cell-based; conditions: Haemophilus influenzae
Source text: as §1, §2

K. aerogenes 1522E = assay: as above; type: cell-based; conditions: Klebsiella aerogenes
Source text: as §1, §2

E. cloacae 1321E = assay: as above; type: cell-based; conditions: Enterobacter cloacae
Source text: as §1, §2

Staph.aureus 853E = assay: as above; type: cell-based; conditions: Staphylococcus aureus
Source text: as §1, §2

Micrococcus Sp 1810E = assay: as above; type: cell-based; conditions: SP1810E
Source text: as §1, §2

E. coli 851E = assay: as above; type: cell-based; conditions: Escherichia coli
Source text: as §1, §2

[1] = S. marcescens 1324E, clinical isolate, Oxoid No. 1 Nutrient agar, approximately 10^5 colony forming units, 18 hours at 37°C, read-out: MIC
[2] = E. cloacae 1051E, clinical isolate, Oxoid No. 1 Nutrient agar, approximately 10^5 colony forming units, 18 hours at 37°C, read-out: MIC
[3] = H. influenzae 1184E, clinical isolate, Oxoid No. 1 Nutrient agar, approximately 10^5 colony forming units, 18 hours at 37°C, read-out: MIC
[4] = K. aerogenes 1522E, clinical isolate, Oxoid No. 1 Nutrient agar, approximately 10^5 colony forming units, 18 hours at 37°C, read-out: MIC
[5] = E. cloacae 1321E, clinical isolate, Oxoid No. 1 Nutrient agar, approximately 10^5 colony forming units, 18 hours at 37°C, read-out: MIC
[6] = Staph.aureus 853E, clinical isolate, Oxoid No. 1 Nutrient agar, approximately 10^5 colony forming units, 18 hours at 37°C, read-out: MIC
[7] = Micrococcus Sp 1810E, clinical isolate, Oxoid No. 1 Nutrient agar, approximately 10^5 colony forming units, 18 hours at 37°C, read-out: MIC
[8] = E. coli 851E, clinical isolate, Oxoid No. 1 Nutrient agar, approximately 10^5 colony forming units, 18 hours at 37°C, read-out: MIC

| Structure (SMILES) | LD50 (Toxicity (LD50) in mice) [mg/kg] | MIC (S. marcescens 1324E; [1]) [µg/mL] | MIC (E. cloacae 1051E; [2]) [µg/mL] | MIC (H. influenzae 1184E; [3]) [µg/mL] | MIC (K. aerogenes 1522E; [4]) [µg/mL] | MIC (E. cloacae 1321E; [5]) [µg/mL] | MIC (Staph.aureus 853E; [6]) [µg/mL] | MIC (Micrococcus Sp 1810E; [7]) [µg/mL] | MIC (E. coli 851E; [8]) [µg/mL] | MIC (S. marcescens 1324E; 1324E, 18 h) [µg/mL] | MIC (E. cloacae 1051E; 1051E, 18 h) [µg/mL] | MIC (H. influenzae 1184E; 1184E, 18 h) [µg/mL] | MIC (K. aerogenes 1522E; 1522E, 18 h) [µg/mL] | MIC (E. cloacae 1321E; 1321E, 18 h) [µg/mL] | MIC (Staph.aureus 853E; 853E, 18 h) [µg/mL] | MIC (Micrococcus Sp 1810E; Micrococcus, 18 h) [µg/mL] | MIC (E. coli 851E; 851E, 18 h) [µg/mL] |
| --- | --- | --- | --- | --- | --- | --- | --- | --- | --- | --- | --- | --- | --- | --- | --- | --- | --- |
| O=C([O-])C1=C(CCOC2CCCCO2)SC2CC(=O)N12.[K+] (racemic) [Example 43, Potassium (5RS)-2-[2-(tetrahydropyran-2-yloxy)ethyl]-pen-2-em-3-carboxylate] | > 500 | – | – | – | – | – | – | – | – | – | – | – | – | – | – | – | – |
| CCCC1=C(C(=O)O)N2C(=O)CC2S1 (racemic) [Example 28, (5RS)-2-ProD^ylpen-2-em-3-carboxylic acid] | – | 1 (≈ 4.69 µM) | 4 (≈ 18.8 µM) | 1 (≈ 4.69 µM) | 0.5 (≈ 2.34 µM) | 0.5 (≈ 2.34 µM) | < 0.1 | < 0.1 | 0.5 (≈ 2.34 µM) | – | – | – | – | – | – | – | – |
| CC1=C(C(=O)O)N2C(=O)CC2S1 (single isomer, unassigned) [Example 6] | – | 8 (≈ 43.2 µM) | 16 (≈ 86.4 µM) | 4 (≈ 21.6 µM) | 16 (≈ 86.4 µM) | 8 (≈ 43.2 µM) | 1 (≈ 5.4 µM) | 0.2 (≈ 1.08 µM) | 8 (≈ 43.2 µM) | – | – | – | – | – | – | – | – |
| COCCC1=C(C(=O)[O-])N2C(=O)CC2S1.[Na+] (racemic) [Example 45, Sodium (5RS)-2-(2-methoxyethyl)pen-2-em-3-carboxylate] | – | – | – | – | – | – | – | – | – | 8 | 8 | 4 | 4 | 2 | 0.5 | < 0.1 | 2 |
| NC(=O)OCCC1=C(C(=O)O)N2C(=O)CC2S1 (racemic) [Example 18, (5RS)-2-(2-Carbamoyloxethyl)pen-2-em-3-carboxlic acid] | – | 4 (≈ 15.5 µM) | 8 (≈ 31 µM) | 2 (≈ 7.74 µM) | 4 (≈ 15.5 µM) | 2 (≈ 7.74 µM) | < 0.1 | < 0.1 | 2 (≈ 7.74 µM) | – | – | – | – | – | – | – | – |
| O=C(CCl)OCCC1=C(C(=O)[O-])N2C(=O)CC2S1.[K+] (racemic) [Example 57, Potassium (5RS)-2-[2-(2-chloroacetyl)oxyethyl]pen-2-em-3-carboxylate] | – | – | – | – | – | – | – | – | – | 8 | 16 | 4 | 8 | 8 | 0.5 | 0.2 | 8 |
| COCC1=C(C(=O)O)N2C(=O)CC2S1 (racemic) [Example 52, Potassium (5RS)-2-methoxymethylen-2-em-3-carboxylate] | – | 4 | 8 | 4 | 4 | 2 | 0.5 | 0.2 | 4 | – | – | – | – | – | – | – | – |
| O=C(O)C1=C(CCO)SC2CC(=O)N12 (racemic) [Example 11, Potassium (5RS)-2-(2-hdroxethyl)pen-2-em-3-carboxylate] | – | 8 | 8 | 8 | 8 | 4 | 0.5 | < 0.1 | 4 | – | – | – | – | – | – | – | – |
| CNC(=O)OCCC1=C(C(=O)O)N2C(=O)CC2S1 (racemic) [Example 21] | – | 4 (≈ 14.7 µM) | 31 (≈ 114 µM) | 4 (≈ 14.7 µM) | 4 (≈ 14.7 µM) | 4 (≈ 14.7 µM) | 0.2 (≈ 0.735 µM) | < 0.1 | 4 (≈ 14.7 µM) | – | – | – | – | – | – | – | – |
| CC(=O)OCCC1=C(C(=O)O)N2C(=O)CC2S1 (racemic) [Example 13, Potassium (5RS)-2-(2-acetoxethyl)pen-2-em-3-carbolate] | – | 62 | 16 | – | 8 | 2 | 0.5 | 0.2 | 4 | – | – | – | – | – | – | – | – |
| CCC1=C(C(=O)[O-])N2C(=O)CC2[S+]1[O-].[K+] (racemic) [Example 36, Potassium (5RS)-2-ethylpen-2-em-3-carboxylate-1-oxide] | > 500 | – | – | – | – | – | – | – | – | 8 | 8 | 2 | 8 | 8 | 0.5 | 0.1 | 8 |
| CCCCC1=C(C(=O)O)N2C(=O)CC2S1 (racemic) [Example 26, (5RS)2-n-Butylpen-2-em-3-carboxylic acid] | – | 31 (≈ 136 µM) | 125 (≈ 550 µM) | 4 (≈ 17.6 µM) | 31 (≈ 136 µM) | 31 (≈ 136 µM) | 0.5 (≈ 2.2 µM) | – | 31 (≈ 136 µM) | – | – | – | – | – | – | – | – |
